Test results reported in patent US20240277658A1, “NLRP3 ACTIVATORS FOR USE IN THE TREATMENT OF INFECTIOUS DISEASES OR CANCER BY ACTIVATING NLRP3 INFLAMMASOME” (ALBERT-LUDWIGS-UNIVERSITÄT FREIBURG, priority 2020, published 2024).
Several values for one entry are separate records, joined by “and”; a condition that tells them apart may be missing. Identical values can stand only once. Like-named read-outs stand apart in the source and are kept apart here.

Tests used:
BMDCs = test: LDH release (lytic cell death, pyroptosis) from LPS-primed BMDCs; format: cell-based, mouse; details: for Average (% positive control): LDH release; for cytotoxicity at 20 µM / cytotoxicity at 40 µM / cytotoxicity at 80 µM / cytotoxicity at 50 µM: Mus musculus, BMDC; for cytotoxicity at 50 µM: LPS-primed BMDCs
Protocol: (§1) This was tested in cell culture in several different in vitro assays classically used to investigate inflammasome activation. These include measuring inflammasome-dependent lytic cell death (pyroptosis) by detecting release of the cytosolic enzyme lactate dehydrogenase (LDH) using a commercial colorimetric assay and release of proinflammatory cytokines like IL-1β by enzyme-linked immunosorbent assay (ELISA), analyzing cleavage and activation of caspase-1 and IL-1β by immunoblotting and immunofluorescence imaging of ASC speck formation. Lytic cell death was determined via LDH release. Assay results for compounds are illustrated in the Tables below, wherein the concentration of the compounds tested had been 50 μM or as indicated in the table, and the concentration of the known activators has been tested with 5 μM of nigericin, 100 μM of each R837 and CL097. For classification of the activity of a given molecule, release of IL-1β was quantified as % of IL-1% of a respective control activator used for the experiment (highlighted in tables with bold letters). The compounds listes in Table 1 were classified into 4 groups depending on their ability to induce the NLRP3 inflammasome activation, assessed by % IL-1β release as compared to the positive control.
(§2) Mouse bone marrow-derived dendritic cells (BMDCs) were isolated from femurs and tibias previously described (Gross, Olaf, 2012, “Measuring the inflammasome”, Methods in molecular biology, Clifton, N.J., 844, pp. 199-222.). In brief, tibias and femurs were carefully removed and put to sterile 70% ethanol for 1 minute. Using a 22-G needle attached to a 20 ml-syringe filled with sterile flushing medium, the bone marrow was pressed through the mesh of a […] cell strainer. The cells were spun down by centrifugation at 400×g, 4° C. for 5 minutes and red blood cells lysed by resuspension and incubation for 5 minutes at room temperature in RBC lysis buffer. 9 ml of flushing medium were added and cells were again spun down by centrifugation at 400×g, 4° C. for 5 minutes. Cells were then resuspended in BMDC medium (RPMI, 10% fetal bovine serum, 1% penicillin-streptomycin100 U/ml, 20 ng/ml recombinant murine GM-CSF), counted and plated at a density of 0.5×10^6 cells ml^−1 in 10 ml medium and incubated at 37° C., 5% CO2 in a humidified incubator. After 2 days, 10 ml of fresh medium were added to the cells and after 4 days, the medium was fully exchanged to 20 ml of fresh medium. The cells were allowed to differentiate for 6 to 8 days before usage.
(§3) For canonical inflammasome activation BMDCs after 7-9 days of differentiation were harvested and counted with a Neubauer Chamber (Hecht Assistant) and the concentration was set to 1 Mio cells ml^−1. 100 μl cell suspension per well were seeded in 96-well plates. The cells were primed with 50 ng ml^−1 E. coli K12 ultra-pure LPS for 3 hours and subsequently treated with canonical inflammasome activators or experimental compounds for 3 hours if not indicated differently (incubation time FIG. 4D, 5, 7, 8, 11, 13-18: 3 h, FIG. 12: 4 h). Concentrations of the stimuli were as follows if not indicated differently: 5 μM nigericin, 100 μM imiquimod (also known as R837), 100 μM CL097, 100 μM R848, […] poly(dA:dT), 300 μg ml^−1 MSU. If an inhibitor was used before stimuli treatment, the inhibitor was added after 2.5 hours of priming and it was incubated for 30 minutes before inflammasome activation. Inhibitors were used as follows: 3 μM MCC950, 45 mM KCl, 30 μM ebselen (2-Phenyl-1,2-benzoselenazol-3-one), 5 μM cytochalasin D (see FIGS. 8, 11, 12 and 17).
(§4) All inflammasome stimulations were performed in three technical replicates for each condition. […]

NLRP3 inflammasome = molecular target: T1, NLRP3 inflammasome (Mus musculus, UniProt Q8R4B8); test: IL-1β release from LPS-primed BMDCs (ELISA) as readout of NLRP3 inflammasome activation; format: cell-based
T1 construct: endogenous in cells; host or cells: primary mouse bone marrow-derived dendritic cells (BMDCs), LPS-primed
Protocol: as §1, §2, §3, §4

[1] = 20 μM, positive control EN22 20 μM
[2] = 40 μM, positive control EN22 20 μM
[3] = 80 μM, positive control EN22 20 μM
[4] = 20 μM, individual replicate values, read-out: LDH release (% of max.)
[5] = 20 μM, read-out: Average LDH release (% of max.)
[6] = 40 μM, individual replicate values, read-out: LDH release (% of max.)
[7] = 40 μM, read-out: Average LDH release (% of max.)
[8] = 80 μM, individual replicate values, read-out: LDH release (% of max.)
[9] = 80 μM, read-out: Average LDH release (% of max.)
[10] = 20 μM, individual replicate values
[11] = 40 μM, individual replicate values
[12] = 80 μM, individual replicate values
[13] = IL-1β, 20 μM, positive control EN22
[14] = IL-1β, 40 μM, positive control EN22
[15] = IL-1β, 80 μM, positive control EN22
[16] = compound 50 μM, positive control nigericin 5 μM
[17] = compound 50 μM, read-out: Average LDH release (% of max.)
[18] = single replicates, compound 50 μM, read-out: LDH release (% of max.)
[19] = IL-1β release, compound 50 μM, positive control nigericin 5 μM
[20] = compound 50 μM, LPS-primed BMDCs
[21] = single replicates, compound 50 μM, LPS-primed BMDCs

T1 sequence (Q8R4B8 whole entry): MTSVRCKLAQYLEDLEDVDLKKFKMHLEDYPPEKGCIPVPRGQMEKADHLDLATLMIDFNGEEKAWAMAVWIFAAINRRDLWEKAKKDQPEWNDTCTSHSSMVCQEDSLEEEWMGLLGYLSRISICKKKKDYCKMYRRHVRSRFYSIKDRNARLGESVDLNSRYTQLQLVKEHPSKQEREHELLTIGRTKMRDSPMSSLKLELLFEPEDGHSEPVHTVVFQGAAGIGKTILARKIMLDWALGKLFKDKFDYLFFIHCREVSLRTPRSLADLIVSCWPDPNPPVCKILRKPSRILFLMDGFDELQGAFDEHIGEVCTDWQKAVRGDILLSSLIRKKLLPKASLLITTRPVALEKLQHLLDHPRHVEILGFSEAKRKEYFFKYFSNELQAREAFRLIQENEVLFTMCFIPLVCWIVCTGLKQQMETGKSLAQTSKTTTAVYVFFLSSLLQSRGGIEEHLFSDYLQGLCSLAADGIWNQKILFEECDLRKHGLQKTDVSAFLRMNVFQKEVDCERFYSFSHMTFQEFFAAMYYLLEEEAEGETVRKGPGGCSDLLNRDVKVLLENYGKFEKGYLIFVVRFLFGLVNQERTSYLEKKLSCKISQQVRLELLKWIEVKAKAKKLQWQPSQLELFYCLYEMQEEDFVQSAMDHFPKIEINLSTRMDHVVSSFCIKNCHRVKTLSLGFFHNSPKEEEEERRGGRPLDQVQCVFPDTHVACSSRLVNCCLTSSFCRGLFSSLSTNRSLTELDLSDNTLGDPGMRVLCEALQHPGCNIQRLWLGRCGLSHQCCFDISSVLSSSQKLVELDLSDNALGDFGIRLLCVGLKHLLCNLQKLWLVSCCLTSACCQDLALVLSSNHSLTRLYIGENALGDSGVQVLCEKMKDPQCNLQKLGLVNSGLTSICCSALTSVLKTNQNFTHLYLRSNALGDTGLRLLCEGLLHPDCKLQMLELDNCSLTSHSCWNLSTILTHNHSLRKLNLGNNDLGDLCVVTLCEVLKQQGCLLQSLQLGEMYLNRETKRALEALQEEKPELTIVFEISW

O=C(Nc1ccccc1)Nc1ccc2ncc(Br)cc2c1 [JB004, 1-(3-bromoquinolin-6-yl)-3-phenylurea]
Average (% positive control) (BMDCs; [1]): 39.589 % positive control | Average (% positive control) (BMDCs; [2]): 51.749 % positive control | Average (% positive control) (BMDCs; [3]): 68.244 % positive control | cytotoxicity at 20 µM (BMDCs; [4]): 31% | cytotoxicity at 20 µM (BMDCs; [5]): 21.1% | cytotoxicity at 40 µM (BMDCs; [6]): 25.6% | cytotoxicity at 40 µM (BMDCs; [7]): 27.6% | cytotoxicity at 80 µM (BMDCs; [8]): 34.3% | cytotoxicity at 80 µM (BMDCs; [9]): 36.4% | Average IL-1β (NLRP3 inflammasome; 20 μM): 0.971 ng/mL | IL-1β (NLRP3 inflammasome; [10]): 0.966 ng/mL and 0.765 ng/mL and 1.182 ng/mL | Average IL-1β (NLRP3 inflammasome; 40 μM): 1.507 ng/mL | IL-1β (NLRP3 inflammasome; [11]): 1.350 ng/mL and 1.479 ng/mL and 1.691 ng/mL | Average IL-1β (NLRP3 inflammasome; 80 μM): 1.657 ng/mL | IL-1β (NLRP3 inflammasome; [12]): 1.684 ng/mL and 1.413 ng/mL and 1.876 ng/mL | Average (% positive control) (NLRP3 inflammasome; [13]): 49.601 % positive control | Average (% positive control) (NLRP3 inflammasome; [14]): 76.971 % positive control | Average (% positive control) (NLRP3 inflammasome; [15]): 84.675 % positive control

N#Cc1ccc(NC(=O)Nc2ccc3ncccc3c2)cc1 [JB011, 1-(4-cyanophenyl)-3-(quinolin-6-yl)urea]
Average (% positive control) (BMDCs; [1]): 21.883 % positive control | Average (% positive control) (BMDCs; [2]): 24.799 % positive control | Average (% positive control) (BMDCs; [3]): 31.296 % positive control | cytotoxicity at 20 µM (BMDCs; [4]): 11.5% | cytotoxicity at 20 µM (BMDCs; [5]): 11.7% | cytotoxicity at 40 µM (BMDCs; [6]): 12.6% | cytotoxicity at 40 µM (BMDCs; [7]): 13.2% | cytotoxicity at 80 µM (BMDCs; [8]): 16.4% | cytotoxicity at 80 µM (BMDCs; [9]): 16.7% | Average IL-1β (NLRP3 inflammasome; 20 μM): 0.576 ng/mL | IL-1β (NLRP3 inflammasome; [10]): 0.562 ng/mL and 0.612 ng/mL and 0.553 ng/mL | Average IL-1β (NLRP3 inflammasome; 40 μM): 0.604 ng/mL | IL-1β (NLRP3 inflammasome; [11]): 0.538 ng/mL and 0.564 ng/mL and 0.711 ng/mL | Average IL-1β (NLRP3 inflammasome; 80 μM): 0.752 ng/mL | IL-1β (NLRP3 inflammasome; [12]): 0.912 ng/mL and 0.737 ng/mL and 0.607 ng/mL | Average (% positive control) (NLRP3 inflammasome; [13]): 29.413 % positive control | Average (% positive control) (NLRP3 inflammasome; [14]): 30.877 % positive control | Average (% positive control) (NLRP3 inflammasome; [15]): 38.413 % positive control

N#CCOc1ccc(NC(=O)Nc2ccccc2)cc1 [L01.002, 1-[4-(cyanomethoxy)-phenyl]-3-phenylurea]
Average (% positive control) (BMDCs; [16]): 13.662 % positive control | cytotoxicity at 50 µM (BMDCs; [17]): 9.99% | cytotoxicity at 50 µM (BMDCs; [18]): 8.07% | Average (% positive control) (NLRP3 inflammasome; [19]): 2.590 % positive control | Average IL-1β (NLRP3 inflammasome; [20]): 0.186 ng/mL | IL-1β (NLRP3 inflammasome; [21]): 0.144 ng/mL and 0.249 ng/mL and 0.164 ng/mL

CC(C)=CC(=O)Nc1cccc(NC(=O)Nc2ccccc2)c1 [L01.003, 3-methyl-N-{3-[(phen-ylcarbamoyl)amino]-phenyl}but-2-enamide]
Average (% positive control) (BMDCs; [16]): 10.676 % positive control | cytotoxicity at 50 µM (BMDCs; [17]): 7.81% | cytotoxicity at 50 µM (BMDCs; [18]): 6.28% | Average (% positive control) (NLRP3 inflammasome; [19]): 2.301 % positive control | Average IL-1β (NLRP3 inflammasome; [20]): 0.165 ng/mL | IL-1β (NLRP3 inflammasome; [21]): 0.167 ng/mL and 0.153 ng/mL and 0.175 ng/mL

O=C(Nc1ccccc1)Nc1ccc(N2CCCC2)cc1 [L01.004, 3-phenyl-1-[4-(pyrrol-idin-1-yl)phenyl]urea]
Average (% positive control) (BMDCs; [16]): 23.074 % positive control | cytotoxicity at 50 µM (BMDCs; [17]): 16.9% | cytotoxicity at 50 µM (BMDCs; [18]): 15.2% | Average (% positive control) (NLRP3 inflammasome; [19]): 19.737 % positive control | Average IL-1β (NLRP3 inflammasome; [20]): 1.415 ng/mL | IL-1β (NLRP3 inflammasome; [21]): 1.192 ng/mL and 1.485 ng/mL and 1.567 ng/mL

CC(C)C(NC(=O)Nc1cccc(C(F)(F)F)c1)c1nc(-c2cccnc2)no1 (stereo not drawn) [L01.005, 3-{2-methyl-1-[3-(pyridin-3-yl)-1,2,4-oxadiazol-5-yl]propyl}-1-[3-(trifluoromethyl)-phenyl]urea]
Average (% positive control) (BMDCs; [16]): 20.238 % positive control | cytotoxicity at 50 µM (BMDCs; [17]): 14.8% | cytotoxicity at 50 µM (BMDCs; [18]): 9.31% | Average (% positive control) (NLRP3 inflammasome; [19]): 0.980 % positive control | Average IL-1β (NLRP3 inflammasome; [20]): 0.070 ng/mL | IL-1β (NLRP3 inflammasome; [21]): 0.053 ng/mL and 0.074 ng/mL and 0.084 ng/mL

COc1ccc(F)cc1NC(=O)NC(c1nc(-c2cccnc2)no1)C(C)C (stereo not drawn) [L01.007, 1-(5-fluoro-2-methoxy-phenyl)-3-{2-methyl-1-[3-(pyridin-3-yl)-1,2,4-oxadiazol-5-yl]propyl}-urea]
Average (% positive control) (BMDCs; [16]): 27.756 % positive control | cytotoxicity at 50 µM (BMDCs; [17]): 20.3% | cytotoxicity at 50 µM (BMDCs; [18]): 17.8% | Average (% positive control) (NLRP3 inflammasome; [19]): 16.422 % positive control | Average IL-1β (NLRP3 inflammasome; [20]): 1.177 ng/mL | IL-1β (NLRP3 inflammasome; [21]): 0.859 ng/mL and 1.572 ng/mL and 1.101 ng/mL
